In PubChem BioAssay (NCI):
“And” between values parts separate entries of the source, which are not always exact repeats. Identical values can stand only once.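 Where inhibition never reached the appropriate level, the endpoint shown equals the highest concentration tested. Otherwise, values were interpolated linearly from a five-concentration, 48-hour dose response in 96-well plates. At the GI50, growth is halved. TGI denotes the concentration required for complete inhibition of growth.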

How the values were obtained:
Experiment in all cases: NCI anticancer screen, dose series, 48 h
A549 NSCLC = test system: A549 NSCLC
ACHN renal = test system: ACHN renal
HCT-15 colon = test system: HCT-15 colon
HS 578T breast = test system: HS 578T breast
K-562 leukemia = test system: K-562 leukemia
KM12 colon = test system: KM12 colon
M14 melanoma = test system: M14 melanoma
MCF7 breast = test system: MCF7 breast
NCI-H226 lung = test system: NCI-H226 lung
OVCAR-5 ovarian = test system: OVCAR-5 ovarian

| Compound | GI50 (A549 NSCLC) [µM] | TGI (A549 NSCLC) [µM] | GI50 (ACHN renal) [µM] | TGI (ACHN renal) [µM] | GI50 (HCT-15 colon) [µM] | TGI (HCT-15 colon) [µM] | GI50 (HS 578T breast) [µM] | TGI (HS 578T breast) [µM] | GI50 (K-562 leukemia) [µM] | TGI (K-562 leukemia) [µM] | GI50 (KM12 colon) [µM] | TGI (KM12 colon) [µM] | GI50 (M14 melanoma) [µM] | TGI (M14 melanoma) [µM] | GI50 (MCF7 breast) [µM] | TGI (MCF7 breast) | GI50 (NCI-H226 lung) [µM] | TGI (NCI-H226 lung) | GI50 (OVCAR-5 ovarian) [µM] | TGI (OVCAR-5 ovarian) [µM] |
| --- | --- | --- | --- | --- | --- | --- | --- | --- | --- | --- | --- | --- | --- | --- | --- | --- | --- | --- | --- | --- |
| CCN(CC)CCOc1cc2c(C(=O)OC)c(C)oc2cc1C(C)=O | 18.5 | 38.4 | 5.65 | 18.3 | 10.5 | 22.7 | 13.4 | 31.4 | 4.7 | 29.2 | 4.45 | 21.1 | 4.53 | 16.9 | 22.8 | 45.2 µM | 11.4 | 25.2 µM | 15.4 | 29.1 |
| COC(=O)C#Cc1ccc([N+](=O)[O-])cc1 |  | 7.44 |  | 2.9 |  | 1.6 |  | 47.5 |  | 12.9 |  | 3.9 |  | 4.96 |  | 9.04 µM |  | 5.72 µM |  | 4.34 |
| CN(CCC(=O)O)S(=O)(=O)c1ccccc1 |  | > 100 |  | > 100 |  | > 100 |  | > 100 |  | > 100 |  | > 100 |  | > 100 |  | > 100 µM |  | > 100 µM |  | > 100 |
| CO[C@H]1CC[C@@]2(C)C(=CC[C@H]3[C@@H]4C[C@H](O)C[C@@]4(C)CC[C@@H]32)C1 | 4.42 | 19.6 | 8.2 | 28.3 | 5.04 | 23.2 | 2.16 | 9.41 | 2.78 | 16 | 4.5 | 15.8 | 3.61 | 16.2 | 5.32 | 25.3 µM | 13.8 | 27.8 µM | 20.2 | 44.1 |
| O=C(O)c1cccc(CC(Br)C(=O)O)c1 (stereo not drawn) |  | > 100 |  | > 100 |  | > 100 |  | > 100 |  | > 100 |  | > 100 |  | > 100 |  | > 100 µM |  | > 100 µM |  | > 100 |
| CN(C)CC1CCn2c(c(C3=C(c4cn(C)c5ccccc45)C(=O)NC3=O)c3ccccc32)C1 (stereo not drawn) | 4.5 | 9.06 | 3.88 | 7.9 | 4.1 | 10.1 | 2.31 | 7.36 | 4.97 | 10.5 | 4.14 | 8.26 | 4.11 | 8.04 | 4.31 | 8.03 µM | 4.01 | 9.38 µM | 4.61 | 12.8 |
| Cc1cccc(N=C2c3cc([N+](=O)[O-])ccc3-c3c2cc([N+](=O)[O-])cc3[N+](=O)[O-])c1 | 12.3 | 32.9 | 3.36 | 11.5 | 2.8 | 10.7 | 11.3 | 53.9 | 2.9 | 10.5 | 5.06 | 20 | 2.2 | 4.57 | 6.27 | 28.2 µM | 5.08 | 22.2 µM | 18.3 | 40.2 |
| COc1ccc2c(c1)Cc1c-2c(NN)nc2ccccc12 | 33.6 | > 100 | 44.7 | > 100 | 25.5 | > 100 | 35.8 | > 100 | 6.65 | 85.1 | 13.8 | > 100 | 40.1 | > 100 | 5.66 | 48.5 µM | 64 | > 100 µM | 35.5 | > 100 |
| O=C1/C(=C/c2ccc(Cl)cc2)CN(C(=O)C(Cl)Cl)C/C1=C\c1ccc(Cl)cc1 | 0.275 | 1.05 | 0.214 | 0.475 | 0.0577 | 0.793 | 0.312 | 2.33 | 0.0469 | > 68.9 | 0.0912 | 0.273 | 0.242 | 0.749 | 0.0441 | 0.56 µM | 0.211 | 0.454 µM | 0.287 | 0.799 |
| COc1cc(-c2nc3ccccc3s2)ccc1OCc1nc2n(n1)S(=O)(=O)c1ccccc1N2C | > 100 | > 100 | > 100 | > 100 | > 100 | > 100 | > 100 | > 100 | 97.4 | > 100 | > 100 | > 100 | > 100 | > 100 | > 100 | > 100 µM | > 100 | > 100 µM | > 100 | > 100 |
| Cn1cnc2c(NCc3ccccc3)nc(NCCO)nc21 | 105 | > 458 | 92.7 | > 468 | 129 | > 500 | 162 | 465 |  | 489 | 62.1 | 344 | 51 | 120 | 62.9 | 90.4 µM and > 268 µM | 17.5 | > 93.2 µM and 183 µM |  | > 217 |
| Nc1nccc(Nc2ccc(S(N)(=O)=O)cc2)n1 |  | > 100 |  | > 100 |  | > 100 |  | > 100 |  | > 100 |  | > 100 |  | > 100 |  | > 100 µM |  | > 100 µM |  | > 100 |
| C[C@]12CCC(=O)C=C1CC[C@@H]1[C@@H]2CC[C@]2(C)C(=O)/C(=C/c3cccc(OCCN4CCOCC4)c3)C[C@@H]12 | 7.17 | 89.5 | 18.7 | > 100 | 5.29 | 42.1 | 16.6 | 66.7 | 3.51 | 15.5 | 9.02 | > 100 | 8.9 | 21.5 | 9.11 | 71.7 µM | 14.2 | > 100 µM | 13.4 | 34 |
| COC1CC2CCC(C)[C@](O)(O2)C(=O)C(=O)N2CCCCC2C(=O)OC(C(C)CC2CCC(O)C(OC)C2)CC(=O)C(C)C=C(C)C(OC(=O)CN(C)C)C(OC)C(=O)C(C)CC(C)/C=C/C=C/C=C\1C (stereo partly drawn) |  | 26.9 |  | 19.6 |  | 22.6 |  | 16.9 |  | 13.6 |  | 23.1 |  | 23 |  | 17.6 µM |  | 22.3 µM |  | 26.4 |
| O=C(Nc1ccc(Br)c(Cl)c1)c1cc(F)ccc1O | 1.75 | > 50 | 0.61 | > 14.4 | 0.888 | 6.66 | 0.719 | > 15.5 | 0.293 | > 50 | 1.36 | 5.23 | 0.585 | 3.1 | 0.883 | > 50 µM | 0.651 | 2.69 µM | 1.71 | > 50 |
| CN1CCN(Cc2ccc(NC(=O)c3cncc(C#Cc4c(N)ncc5cc(F)ccc45)c3)cc2C(F)(F)F)CC1 | 0.887 | 1.73 | 1.99 | 8.84 | 0.631 | 1.31 | 1.11 | 6.47 | 0.005 | 1.09 | 0.0172 | 0.738 | 0.378 | 1.11 | 0.591 | 1.35 µM | 0.442 | 8.56 µM | 1.06 | 3.55 |
| C=C[C@]1(C)C=C2C(=O)[C@@]3(O)OC(=O)[C@@]4(CCCC(C)(C)[C@H]34)[C@@]2(O)CC1 | 2.38 | 7.26 | 1.12 | 2.35 | 0.79 | 3.05 | 2.77 | > 100 | 2.13 | 10.1 | 3.42 | 13.8 | 1.79 | 3.82 | 1.42 | 6.96 µM | 5.14 | 26.1 µM | 1.97 | 3.85 |
| C/C(=C\c1ccn(-c2ccc(N)cc2)n1)[C@@H]1C[C@@H]2O[C@]2(C)CCC[C@H](C)[C@H](O)[C@@H](C)C(=O)C(C)(C)[C@@H](O)CC(=O)O1 | 0.0348 | > 50 | 0.161 | > 50 | 0.0297 | > 50 | 0.0863 | > 21.6 | 0.0248 | > 50 | 0.0196 | > 50 |  |  | 0.0152 | > 50 µM | > 50 | > 50 µM | 0.107 | > 50 |
| CCCC(=O)NNc1[nH]c(-c2ccc(OC)cc2)cc1C(=O)OCC | 21.5 | 44.8 | 10.9 | 22.9 | 9.47 | 21.3 | 21.7 | 57.9 | 9.61 | > 100 | 37.7 | > 100 | 20.4 | 39.7 | 17.7 | 35.3 µM | 16.1 | 30.1 µM | 23.7 | 44.4 |
| Cc1ccc2sc3c(NCCCNCCO)nc4ccccc4c3c(=O)c2c1 | 1.78 | 3.63 | 1.6 | 2.98 | 1.48 | 2.92 | 1.63 | 3.7 | 1.36 | 3.72 | 1.73 | 3.21 | 1.61 | 3.06 | 1.61 | 3.17 µM | 1.78 | 3.68 µM | 1.62 | 3.16 |
| Cc1ccc(NC(=O)c2ccnc(N3CCCC3)c2)cc1-c1ccc(C(=O)NCC2CC2)cc1 | > 25 | > 25 | > 25 | > 25 | > 25 | > 25 | > 25 | > 25 | > 25 | > 25 | > 25 | > 25 | > 25 | > 25 | > 25 | > 25 µM | > 25 | > 25 µM | > 25 | > 25 |
| COc1cnc2c(c1)C(=O)c1c-2n(CCCN2CCN(C)CC2)c(=O)c2cc(Cl)ccc12 | 4.17 | > 100 | 0.783 | 14.3 | 4.08 | 27.9 | 12.9 | 36.2 | 1.19 | 3.51 | 3.37 | 20.5 | 1.71 | 3.61 | 0.487 | 21.7 µM | 12.3 | 36.2 µM | 3.56 | 13.3 |
| ON(CCc1ccccn1)Cc1ccccc1 |  | > 100 |  | > 100 |  | > 100 |  | > 100 |  | > 100 |  | > 100 |  | > 100 |  | > 100 µM |  | > 100 µM |  | > 100 |
| Cc1cc(C)nc(SC2=C(Nc3cccc(Cl)c3)C(=O)N(Cc3ccccc3)C2=O)n1 | > 170 | > 170 | > 170 | > 170 | > 170 | > 170 | > 170 | > 170 | 5.25 | > 170 | > 170 | > 170 | 39.6 | > 170 | > 170 | > 170 µM | 0.729 | 9.43 µM | > 170 | > 170 |
| CC1(C)C2CCC13C(=O)C1OC3(C2)C2C(=O)c3c(O)ccc(O)c3C(=O)C12 (stereo not drawn) | 46.6 | > 100 | 41 | > 100 | 18.5 | > 54 |  | > 54.4 | 21.2 | > 59.1 | > 50.4 | > 100 | 14.1 | 29.2 | 35 | > 100 µM | > 79 | > 100 µM | 38.3 | > 100 |
| [N-]=[N+]=CC(=O)OCC(N)C(=O)O (stereo not drawn) | 0.711 | 2.86 | 1.7 | > 100 | 0.631 | > 100 | > 100 | > 100 |  |  | 0.58 | > 100 | 0.809 | > 100 | 0.456 | > 100 µM | 3.53 | > 100 µM | 0.971 | > 100 |
| CC(C)=CCC/C(C)=C/CC/C(=C/COP(=O)(OCc1ccc([N+](=O)[O-])o1)N(C)CCCCCl)C(C)(C)C (stereo not drawn) | 10.9 | 27.5 |  |  | 1.66 | 6.79 |  | 1.06 | 6.22 | > 100 | 3.63 | 14.9 | 2.69 | 11.8 | 2.47 | 18.6 µM |  |  | 16.2 | 32.8 |
